PubChem BioAssay AID2060484 (Molecular Pharmacology Branch, DTP, NCI, 2025)

Test system: SUM149PT spheroids with HUVEC/MSC, viability
Test: Anticancer human tumor SUM149PT cell line growth inhibition [GQUAD];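 also: spheroids exposed to drugs for seven days before readout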;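 as to viability, T/C: percent viability relative to DMSO vehicle control taken as 100%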
Details: for IC50: curve of first compound; for viability, T/C: stronger effect = lower value
From the text: DNA G-quadruplex Stabilizer Agents in Combinations in Complex Spheroids
A high-throughput screen of multi-cell type tumor spheroids was designed to identify active combinations of DNA G-quadruplex stabilizer agents and targeted small molecules. Complex spheroids include a stromal component modeled by human endothelial cells (HUVEC) and fibroblasts modeled by human mesenchymal stem cells (MSCs). The concentration ranges selected for each drug and investigational agent were based upon clinically achievable concentrations if the clinical Cmax of the agent was known.
Compounds. The drugs and investigational agents: pidnarulex (CX-5461; NSC782164), APTO-253 (NSC789042), BRACO-19 (NSC847499), peposertib (NSC802822), ceralasertib (NSC780249), elimusertib (NSC800525), camonsertib (NSC841442), AZD-1390 (NSC803789), olaparib (NSC753686), talazoparib (NSC767125), ART-558 (NSC835418), sotorasib (NSC818433), MRTX-1133 (NSC836407), SN-38 (NSC673596), topotecan (NSC609699), etoposide (NSC141540), doxorubicin (NSC123127), gemcitabine (NSC613327), 5-fluorouracil (NSC19893), paclitaxel (NSC125973), vemurafenib (NSC761431), panobinostat (NSC761190), R-306465 (JNJ-16241199; NSC773264), adavosertib (NSC754352), TP-3654 (NSC805149), carboplatin (NSC241240), KSQ-4279 (NSC840948), and staurosporine (NSC755774) were obtained from the National Cancer Institute (NCI) Developmental Therapeutics Program Chemical Repository (34). The FDA-approved anticancer drug set is available from the NCI Developmental Therapeutics Program. […] The stock solutions were prepared in dimethyl sulfoxide (DMSO, Sigma-Aldrich, St. Louis, MO, cat. D2650) at 800-fold the tested concentration and stored at -70 degrees C prior to their use. All drugs and investigational agents were tested over a range starting from a high concentration at or near the clinical Cmax and decreasing in half-log increments. If the clinical Cmax for an agent had not been determined, the highest concentration tested was 10 microM.
2.3 Cell Culture. All cells were maintained in an incubator at 37 degrees C and 5% CO2 with 95% humidity. The PDC lines were cultured according to standard operating procedures established by the NCI PDMR. All PDCs were thawed and cultured in Matrigel-coated flasks prepared with a working solution of 1X Ham's F-12 nutrient mix, without supplementation (Invitrogen, cat. 11765054), 100 U/mL penicillin-streptomycin (Invitrogen, cat. 15140122), and 2.5% Matrigel (Corning Inc., cat. 354248) for the first three passages. The 857933-349-R-J2-PDC line was cultured in 6C/Colon 1B media, which includes advanced DMEM/F-12 (Thermo Fisher Scientific, cat. 12634028), 10 mM HEPES (Thermo Fisher Scientific, cat. 15630080), 1X GlutaMAX supplement (Thermo Fisher Scientific, cat. 35050061), 0.1 mg/mL primocin (InvivoGen, cat. ant-pm-2), 10% defined fetal bovine serum, heat inactivated (HyClone Laboratories Inc., cat. SH30070.03HI), 50% L-WRN conditioned media (ATCC, cat. CRL-3276), 1.25 mM N-Acetyl-L-cysteine (Sigma-Aldrich, cat. A9165), 10 mM nicotinamide (Sigma-Aldrich, cat. N0636), 1X B-27 supplement (Thermo Fisher Scientific, cat. 17504044), 1X N-2 supplement (Thermo Fisher Scientific, cat. 17502048), 10 microM Y-27632 dihydrochloride (Tocris Bioscience, cat. 1254), and 50 ng/mL human EGF recombinant protein (Thermo Fisher Scientific, cat. PHG0311). The 485176-168-R4-J1-PDC line was cultured in Panc media, which includes all 6C/Colon 1B media components plus 100 ng/mL human FGF-10 (Thermo Fisher Scientific, cat. 100-26), 500 nM SB-431542 (Selleckchem, cat. S1067), and gastrin (Tocris, cat. 3006).
[…]

[1] = second compound 0.0316 µM, first compound 0.0316 µM
[2] = second compound 0.0316 µM, first compound 0.1 µM
[3] = second compound 0.0316 µM, first compound 0.316 µM
[4] = second compound 0.0316 µM, first compound 1 µM
[5] = second compound 0.0316 µM, first compound 3.16 µM
[6] = second compound 0.0316 µM, first compound 10 µM
[7] = second compound 0.1 µM, first compound 0.0316 µM
[8] = second compound 0.1 µM, first compound 0.1 µM
[9] = second compound 0.1 µM, first compound 0.316 µM
[10] = second compound 0.1 µM, first compound 1 µM
[11] = second compound 0.1 µM, first compound 3.16 µM
[12] = second compound 0.1 µM, first compound 10 µM
[13] = second compound 0.316 µM, first compound 0.0316 µM
[14] = second compound 0.316 µM, first compound 0.1 µM
[15] = second compound 0.316 µM, first compound 0.316 µM
[16] = second compound 0.316 µM, first compound 1 µM
[17] = second compound 0.316 µM, first compound 3.16 µM
[18] = second compound 0.316 µM, first compound 10 µM
[19] = second compound 1 µM, first compound 0.0316 µM
[20] = second compound 1 µM, first compound 0.1 µM
[21] = second compound 1 µM, first compound 0.316 µM
[22] = second compound 1 µM, first compound 1 µM
[23] = second compound 1 µM, first compound 3.16 µM
[24] = second compound 1 µM, first compound 10 µM
[25] = second compound 3.16 µM, first compound 0.0316 µM
[26] = second compound 3.16 µM, first compound 0.1 µM
[27] = second compound 3.16 µM, first compound 0.316 µM
[28] = second compound 3.16 µM, first compound 1 µM
[29] = second compound 3.16 µM, first compound 3.16 µM
[30] = second compound 3.16 µM, first compound 10 µM
[31] = second compound 10 µM, first compound 0.0316 µM
[32] = second compound 10 µM, first compound 0.1 µM
[33] = second compound 10 µM, first compound 0.316 µM
[34] = second compound 10 µM, first compound 1 µM
[35] = second compound 10 µM, first compound 3.16 µM
[36] = second compound 10 µM, first compound 10 µM

CC1COCCN1c1cc(C2(O)CC3CCC(C2)O3)c2cnn(-c3ccn[nH]3)c2n1 (centres undefined) + CN(C)c1ccc(Nc2c3ccc(NC(=O)CCN4CCCC4)cc3nc3cc(NC(=O)CCN4CCCC4)ccc23)cc1
IC50 (second compound 0.0316 µM): 82.7 nM | IC50 (second compound 0.1 µM): 85.2 nM | IC50 (second compound 0.316 µM): 74.5 nM | IC50 (second compound 1 µM): 65.1 nM | IC50 (second compound 3.16 µM): 56.7 nM | IC50 (second compound 10 µM): 59.9 nM | viability, T/C [1]: 84.2% | viability, T/C [2]: 43.3% | viability, T/C [3]: 27% | viability, T/C [4]: 25.3% | viability, T/C [5]: 31.2% | viability, T/C [6]: 20% | viability, T/C [7]: 77.4% | viability, T/C [8]: 45% | viability, T/C [9]: 31.4% | viability, T/C [10]: 25.1% | viability, T/C [11]: 27.5% | viability, T/C [12]: 18.4% | viability, T/C [13]: 68.8% | viability, T/C [14]: 42.7% | viability, T/C [15]: 30.8% | viability, T/C [16]: 27.8% | viability, T/C [17]: 24.2% | viability, T/C [18]: 19.6% | viability, T/C [19]: 68.2% | viability, T/C [20]: 39.5% | viability, T/C [21]: 23.4% | viability, T/C [22]: 26.6% | viability, T/C [23]: 21.5% | viability, T/C [24]: 19.5% | viability, T/C [25]: 62.3% | viability, T/C [26]: 38.5% | viability, T/C [27]: 24.3% | viability, T/C [28]: 22.6% | viability, T/C [29]: 22.6% | viability, T/C [30]: 15.6% | viability, T/C [31]: 65.8% | viability, T/C [32]: 37.6% | viability, T/C [33]: 23.5% | viability, T/C [34]: 22.9% | viability, T/C [35]: 20.1% | viability, T/C [36]: 15.7%

O=C(c1cc(Cc2n[nH]c(=O)c3ccccc23)ccc1F)N1CCN(C(=O)C2CC2)CC1 + Cc1[nH]c2ccc(F)cc2c1-c1nc2c3cccnc3c3ncccc3c2[nH]1
IC50 (second compound 0.0316 µM): > 10000 nM | IC50 (second compound 0.1 µM): > 10000 nM | IC50 (second compound 0.316 µM): > 10000 nM | IC50 (second compound 1 µM): > 10000 nM | IC50 (second compound 3.16 µM): > 10000 nM | IC50 (second compound 10 µM): > 10000 nM | viability, T/C [1]: 105% | viability, T/C [2]: 97.4% | viability, T/C [3]: 98.5% | viability, T/C [4]: 103% | viability, T/C [5]: 93.2% | viability, T/C [6]: 80.3% | viability, T/C [7]: 102% | viability, T/C [8]: 96.8% | viability, T/C [9]: 96.5% | viability, T/C [10]: 99.8% | viability, T/C [11]: 108% | viability, T/C [12]: 76.9% | viability, T/C [13]: 93.8% | viability, T/C [14]: 95.1% | viability, T/C [15]: 103% | viability, T/C [16]: 111% | viability, T/C [17]: 96.6% | viability, T/C [18]: 74.8% | viability, T/C [19]: 99.9% | viability, T/C [20]: 97.6% | viability, T/C [21]: 108% | viability, T/C [22]: 100% | viability, T/C [23]: 100% | viability, T/C [24]: 69.2% | viability, T/C [25]: 89.9% | viability, T/C [26]: 96.4% | viability, T/C [27]: 98.4% | viability, T/C [28]: 99.6% | viability, T/C [29]: 95.8% | viability, T/C [30]: 75.2% | viability, T/C [31]: 86.8% | viability, T/C [32]: 86.6% | viability, T/C [33]: 82.4% | viability, T/C [34]: 101% | viability, T/C [35]: 102% | viability, T/C [36]: 73.5%
